Measurements published in article PMC6272775, “Three New Pigment Protein Tyrosine Phosphatases Inhibitors from the Insect Parasite Fungus Cordyceps gracilioides: Terreusinone A, Pinophilin C and Cryptosporioptide A” (Molecules, 2015).

Assays:
Type in all cases: biochemical
PTP1B = target: T1, PTP1B (Homo sapiens, UniProt P18031); test: PTP assay with pNPP as substrate, PTP1B; details: GST-ΔPTP1B PTP activity domain, 37 °C, pH 5.5
T1 construct: fusion proteins which only carry the PTP activity domain were expressed in Escherichia coli DH5α; GST (N); made in house; host or cells: Escherichia coli DH5α
T1 sequence (P18031 3-277 limits assumed): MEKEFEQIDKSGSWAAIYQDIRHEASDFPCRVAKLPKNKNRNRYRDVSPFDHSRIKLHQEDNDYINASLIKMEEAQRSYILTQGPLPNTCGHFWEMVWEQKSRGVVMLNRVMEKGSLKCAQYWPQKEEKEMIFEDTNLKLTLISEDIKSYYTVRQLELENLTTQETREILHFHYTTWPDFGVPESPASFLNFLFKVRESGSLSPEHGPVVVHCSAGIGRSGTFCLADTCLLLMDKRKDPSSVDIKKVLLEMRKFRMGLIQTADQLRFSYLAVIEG
Source text: Protein tyrosine phosphatases (PTPs) constitute a large family of signaling enzymes that control the cellular levels of protein tyrosine phosphorylation. Several “classical” PTPs are attractive therapeutic targets, including PTP1B for obesity and Type II diabetes, SHP1, and SHP2 and CDC25B for cancer. GST-ΔPTP1B, GST-ΔSHP2, GST-ΔSHP1, GST-ΔLAR and GST-ΔCDC25B fusion proteins which only carry the PTP activity domain were expressed in Escherichia coli DH5α and affinity purified with glutathione Sepharose (Amersham Biosciences, Piscataway, NJ, USA). p-Nitrophenyl phosphate (pNPP) was used in the enzymatic reactions to determine the intrinsic catalytic activities of the PTPs. All assays using pNPP as the substrate were performed in a buffered reaction medium containing 10 mM of sodium acetate (NaAc), 1 mM of ethylenediaminetetraacetic acid and 1 mM of dithiothreitol at 37 °C, pH 5.5. […] Every experiment was performed in triplicate. The inhibitory activity measurements of PTPs were performed with different concentrations (0, 2.5, 5, 10, 20, 40 µg mL^−1) of inhibitor and 20 µg mL^−1 of PTPs. The reaction mixture was incubated at 37 °C for 15 min and the catalytic activity was detected by monitoring the absorbance at 405 nm immediately after adding 12.5 mM of pNPP.

SHP2 = target: T2, SHP2 (Homo sapiens, UniProt Q06124); test: PTP assay with pNPP as substrate, SHP2; details: GST-ΔSHP2 PTP activity domain, 37 °C, pH 5.5
T2 construct: fusion proteins which only carry the PTP activity domain were expressed in Escherichia coli DH5α; GST (N); made in house; host or cells: Escherichia coli DH5α
T2 sequence (Q06124 247-517 limits assumed): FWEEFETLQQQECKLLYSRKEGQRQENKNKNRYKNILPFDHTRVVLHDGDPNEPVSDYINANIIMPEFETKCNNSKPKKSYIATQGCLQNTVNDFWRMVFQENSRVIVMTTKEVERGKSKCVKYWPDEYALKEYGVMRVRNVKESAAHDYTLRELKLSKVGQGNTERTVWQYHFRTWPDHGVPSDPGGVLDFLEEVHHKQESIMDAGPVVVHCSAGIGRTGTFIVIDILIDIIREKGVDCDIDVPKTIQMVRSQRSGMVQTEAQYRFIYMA
Source text: (§1) Protein tyrosine phosphatases (PTPs) constitute a large family of signaling enzymes that control the cellular levels of protein tyrosine phosphorylation. Several “classical” PTPs are attractive therapeutic targets, including PTP1B for obesity and Type II diabetes, SHP1, and SHP2 and CDC25B for cancer. GST-ΔPTP1B, GST-ΔSHP2, GST-ΔSHP1, GST-ΔLAR and GST-ΔCDC25B fusion proteins which only carry the PTP activity domain were expressed in Escherichia coli DH5α and affinity purified with glutathione Sepharose (Amersham Biosciences, Piscataway, NJ, USA). p-Nitrophenyl phosphate (pNPP) was used in the enzymatic reactions to determine the intrinsic catalytic activities of the PTPs. All assays using pNPP as the substrate were performed in a buffered reaction medium containing 10 mM of sodium acetate (NaAc), 1 mM of ethylenediaminetetraacetic acid and 1 mM of dithiothreitol at 37 °C, pH 5.5. Sodium orthovanadate was used as the positive control. Every experiment was performed in triplicate. The inhibitory activity measurements of PTPs were performed with different concentrations (0, 2.5, 5, 10, 20, 40 µg mL^−1) of inhibitor and 20 µg mL^−1 of PTPs. The reaction mixture was incubated at 37 °C for 15 min and the catalytic activity was detected by monitoring the absorbance at 405 nm immediately after adding 12.5 mM of pNPP. IC50 (the concentration of an inhibitor that is required for 50% inhibition of an enzyme) data were derived from the experimental results.

LAR = target: T3, LAR (Homo sapiens, UniProt P10586); test: PTP assay with pNPP as substrate, LAR; details: GST-ΔLAR PTP activity domain, 37 °C, pH 5.5
T3 construct: fusion proteins which only carry the PTP activity domain were expressed in Escherichia coli DH5α; GST (N); made in house; host or cells: Escherichia coli DH5α
T3 sequence (P10586 1352-1607 limits assumed): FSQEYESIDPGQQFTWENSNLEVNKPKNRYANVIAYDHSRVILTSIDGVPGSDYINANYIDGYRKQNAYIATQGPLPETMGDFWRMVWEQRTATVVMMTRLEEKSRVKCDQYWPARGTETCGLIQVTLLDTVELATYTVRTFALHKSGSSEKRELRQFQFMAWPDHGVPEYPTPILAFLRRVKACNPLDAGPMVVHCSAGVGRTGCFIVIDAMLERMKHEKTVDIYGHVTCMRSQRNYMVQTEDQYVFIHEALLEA
Source text: as §1

CDC25B = target: T4, CDC25B (Homo sapiens, UniProt P30305); test: PTP assay with pNPP as substrate, CDC25B; details: GST-ΔCDC25B PTP activity domain, 37 °C, pH 5.5
T4 construct: fusion proteins which only carry the PTP activity domain were expressed in Escherichia coli DH5α; GST (N); made in house; host or cells: Escherichia coli DH5α
T4 sequence (P30305 431-538 limits assumed): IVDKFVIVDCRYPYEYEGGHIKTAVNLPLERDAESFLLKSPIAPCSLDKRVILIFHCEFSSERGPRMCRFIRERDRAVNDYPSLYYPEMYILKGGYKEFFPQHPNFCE
Source text: as §1

SHP1 = target: T5, SHP1 (Homo sapiens, UniProt P29350); test: PTP assay with pNPP as substrate, SHP1; details: GST-ΔSHP1 PTP activity domain, 37 °C, pH 5.5
T5 construct: fusion proteins which only carry the PTP activity domain were expressed in Escherichia coli DH5α; GST (N); made in house; host or cells: Escherichia coli DH5α
T5 sequence (P29350 244-515 limits assumed): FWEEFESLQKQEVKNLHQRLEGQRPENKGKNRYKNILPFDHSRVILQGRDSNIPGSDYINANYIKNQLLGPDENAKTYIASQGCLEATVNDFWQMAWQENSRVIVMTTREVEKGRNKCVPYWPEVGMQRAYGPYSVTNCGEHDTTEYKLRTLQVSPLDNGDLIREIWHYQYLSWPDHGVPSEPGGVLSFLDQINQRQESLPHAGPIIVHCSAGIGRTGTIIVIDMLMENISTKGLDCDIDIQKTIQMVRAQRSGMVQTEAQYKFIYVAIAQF
Source text: as §1

SMILES	IC50 (PTP1B) [µM]	IC50 (SHP2) [µM]	IC50 (LAR) [µM]	IC50 (CDC25B) [µM]	IC50 (SHP1) [µM]	IC50 Values SHP2 (SHP2) [µg/mL]	IC50 Values SHP1 (SHP1) [µg/mL]
CC1(O)C2OC(=O)CCC(=O)NC3(Oc4ccc(C(=O)O)c(O)c4C(=O)C13)C2(C)O (single isomer, unassigned; (+)) [Compound 3]	17.3	13.5	> 119	18	11.6		
COC(c1cc2c([nH]1)C(=O)c1cc(C(OC)C(C)C)[nH]c1C2=O)C(C)C (centres unmarked) [Compound 1, 2,6-bis(1-methoxy-2-methylpropyl) pyrrolo[2,3-f]indole-4,8(1H,5H)-dione]	34.9	> 139	29.6	11.4	15.6		
Cc1cc(O)cc(O)c1C(=O)O[C@]1(C)C(=O)C=C2C=C(/C=C/C(=O)O)OC[C@H]2[C@@H]1O [Compound 2, (E)-3-((7S,8S,8aS)-7-((2,4-dihydroxy-6-methylbenzoyl)oxy)-8-hydroxyl-7-methyl-6-oxo-6,7,8,8a-tetra-hydro-1H-isochromen-3-yl)acrylic acid]	16.3	19.2	11.3	10.8	8.17		
[Na+].[Na+].[Na+].[O]=[V]([O-])([O-])[O-] [Sodium orthovanadate, reference compound]						122.2	4.3
